Results reported in ChEMBL document CHEMBL1201862, “PubChem BioAssay data set” (2004).
“And” between values parts separate entries of the source, which are not always exact repeats. Equal entries are not always repeated.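 Each compound was tested at five concentrations against cells in 96-well plates for 48 hours. At the GI50, growth is halved.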 The source made the active and inactive calls. Rule as the data show it: active = GI50 up to about 1.1 µM and inactive = higher.

What was measured:
Assay in all cases: NCI-60 cell line screen, 48 h
SR = tested on: SR
OVCAR-4 = tested on: OVCAR-4
HL-60 = tested on: HL-60
RPMI-8226 = tested on: RPMI-8226
MOLT-4 = tested on: MOLT-4
MDA-MB-435 = tested on: MDA-MB-435
PC-3 = tested on: PC-3
NCI/ADR-RES = tested on: NCI/ADR-RES
HCT-15 = tested on: HCT-15
OVCAR-5 = tested on: OVCAR-5
U-251 = tested on: U-251
SK-MEL-5 = tested on: SK-MEL-5
HCT-116 = tested on: HCT-116
MDA-MB-231 = tested on: MDA-MB-231
SNB-75 = tested on: SNB-75
DU-145 = tested on: DU-145
NCI-H460 = tested on: NCI-H460
ACHN = tested on: ACHN
SNB-19 = tested on: SNB-19
HCC 2998 = tested on: HCC 2998
NCI-H226 = tested on: NCI-H226
CAKI-1 = tested on: CAKI-1
Malme-3M = tested on: Malme-3M
SK-OV-3 = tested on: SK-OV-3
UO-31 = tested on: UO-31
IGROV-1 = tested on: IGROV-1
SF-539 = tested on: SF-539
MDA-N = tested on: MDA-N
OVCAR-8 = tested on: OVCAR-8
UACC-257 = tested on: UACC-257
EKVX = tested on: EKVX
A498 = tested on: A498
NCI-H23 = tested on: NCI-H23
HOP-62 = tested on: HOP-62
NCI-H522 = tested on: NCI-H522
M14 = tested on: M14
LOX IMVI = tested on: LOX IMVI
786-0 = tested on: 786-0
A549 = tested on: A549
SW-620 = tested on: SW-620
HT-29 = tested on: HT-29
Hs-578T = tested on: Hs-578T
SN12C = tested on: SN12C
SK-MEL-2 = tested on: SK-MEL-2
TK-10 = tested on: TK-10
CCRF-CEM = tested on: CCRF-CEM
KM12 = tested on: KM12
HOP-92 = tested on: HOP-92
MCF7 = tested on: MCF7
K562 = tested on: K562
SK-MEL-28 = tested on: SK-MEL-28
T47D = tested on: T47D
SF-268 = tested on: SF-268
SF-295 = tested on: SF-295
RXF 393 = tested on: RXF 393
UACC-62 = tested on: UACC-62
OVCAR-3 = tested on: OVCAR-3
COLO 205 = tested on: COLO 205
BT-549 = tested on: BT-549

Measured: GI50

CC(=O)OCC1OC(Sc2nc(-c3ccc(Cl)cc3)c(C#N)c(=O)n2C2OC(COC(C)=O)C(OC(C)=O)C(OC(C)=O)C2OC(C)=O)C(OC(C)=O)C(OC(C)=O)C1OC(C)=O (stereo not given)
inactive: SR 30.3 µM | OVCAR-4 3.45 µM | HL-60 3.82 µM | RPMI-8226 35.9 µM | MOLT-4 50.4 µM and > 26.4 µM

CCN(CC)C(=S)N/N=C(/C)c1cccc(/C(C)=N\NC(=S)N(CC)CC)n1
inactive: MDA-MB-435 3.35 µM | PC-3 3.15 µM | NCI/ADR-RES 2 µM | OVCAR-5 3.31 µM | U-251 2.34 µM | SK-MEL-5 2.13 µM | HCT-116 2.8 µM | MDA-MB-231 1.76 µM | SNB-75 3.21 µM | NCI-H460 1.53 µM | SNB-19 4.39 µM | HCC 2998 3.9 µM | NCI-H226 1.56 µM | CAKI-1 1.29 µM | Malme-3M 1.45 µM | SK-OV-3 1.96 µM | UO-31 1.95 µM | IGROV-1 1.91 µM | SF-539 1.37 µM | MDA-N 6.37 µM | OVCAR-8 1.44 µM | OVCAR-4 1.25 µM | UACC-257 2.2 µM | EKVX 2.64 µM | A498 1.89 µM | NCI-H23 3.44 µM | HOP-62 1.41 µM | NCI-H522 3.23 µM | M14 1.38 µM | LOX IMVI 1.81 µM | 786-0 1.45 µM | A549 2.86 µM | HT-29 3.52 µM | Hs-578T 5.64 µM | SN12C 2.79 µM | SK-MEL-2 4.68 µM | TK-10 1.27 µM | HOP-92 1.46 µM | MCF7 2.04 µM | RPMI-8226 2.08 µM | K562 2.67 µM | SK-MEL-28 1.21 µM | T47D 4.88 µM | SF-295 1.66 µM | RXF 393 2.3 µM | MOLT-4 1.66 µM | UACC-62 2.62 µM | OVCAR-3 1.35 µM | COLO 205 1.58 µM
active: SR 0.32 µM | DU-145 0.414 µM | ACHN 0.678 µM | HL-60 0.055 µM | SW-620 0.951 µM | CCRF-CEM 0.389 µM | KM12 0.26 µM | SF-268 0.334 µM
2.3 µM: HCT-15

CN(C)CCCN1c2ccc(O)cc2Sc2ccc(Cl)cc21 [7-HYDROXYCHLORPROMAZINE]
inactive: MDA-MB-435 8.91 µM | PC-3 5.33 µM | NCI/ADR-RES 14.7 µM | SR 2.96 µM | OVCAR-5 15.1 µM | U-251 9.86 µM | SK-MEL-5 13.8 µM | HCT-116 6.3 µM | MDA-MB-231 10.9 µM | SNB-75 8.63 µM | DU-145 17.9 µM | NCI-H460 3.82 µM | ACHN 14.8 µM | SNB-19 13.3 µM | NCI-H226 11.3 µM | CAKI-1 4.2 µM | Malme-3M 10.3 µM | SK-OV-3 17.4 µM | UO-31 9.53 µM | IGROV-1 9.84 µM | SF-539 14.6 µM | OVCAR-8 16 µM | OVCAR-4 12.5 µM | UACC-257 1.71 µM | EKVX 18.4 µM | A498 16.5 µM | NCI-H23 17.7 µM | HOP-62 15.1 µM | HL-60 13.9 µM | NCI-H522 11.4 µM | M14 5.97 µM | LOX IMVI 6.71 µM | 786-0 11.1 µM | A549 13.5 µM | SW-620 17.5 µM | HT-29 3.48 µM | Hs-578T 4.04 µM | SN12C 10.3 µM | SK-MEL-2 6.04 µM | BT-549 12.4 µM | TK-10 12.3 µM | KM12 10.5 µM | HOP-92 4.25 µM | MCF7 13.2 µM | RPMI-8226 4.5 µM | K562 3.86 µM | SK-MEL-28 11.1 µM | T47D 21 µM | SF-268 6.34 µM | SF-295 15.3 µM | RXF 393 16.9 µM | MOLT-4 3.18 µM | UACC-62 9.91 µM | OVCAR-3 11.8 µM | COLO 205 20.8 µM
active: CCRF-CEM 0.859 µM
14.2 µM: HCT-15
